Data taken from patent US9925222B2, “Gut barrier dysfunction treatment and prevention” (ALBERT EINSTEIN COLLEGE OF MEDICINE OF YESHIVA UNIVERSITY, priority 2012, dated 2018).

Columns and labels:
human PXR (hPXR) = target: T1, human PXR (hPXR) (Homo sapiens, UniProt O75469); assay: In vitro transcription assay, PXR reporter gene (MRP2 luciferase) with hPXR expression plasmid in 293T cells
T1 sequence (O75469 1-434): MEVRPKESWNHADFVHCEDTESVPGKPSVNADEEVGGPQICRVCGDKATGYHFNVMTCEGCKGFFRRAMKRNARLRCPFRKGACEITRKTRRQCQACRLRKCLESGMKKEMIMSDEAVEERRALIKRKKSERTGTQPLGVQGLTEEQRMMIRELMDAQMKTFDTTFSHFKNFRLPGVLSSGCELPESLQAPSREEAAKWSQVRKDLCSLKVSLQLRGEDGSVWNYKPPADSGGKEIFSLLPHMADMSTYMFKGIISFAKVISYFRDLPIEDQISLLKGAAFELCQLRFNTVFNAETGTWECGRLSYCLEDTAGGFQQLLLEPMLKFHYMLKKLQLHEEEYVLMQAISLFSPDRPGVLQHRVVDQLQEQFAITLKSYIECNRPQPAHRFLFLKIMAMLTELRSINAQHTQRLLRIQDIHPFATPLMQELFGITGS
Description: These assays were performed in 293T cells as previously published (33). In brief, transient transfection by lipofectamine (Invitrogen) were carried out in 293T cells with plasmids expressing human PXR (hPXR), mouse PXR (mPXR), GAL4-FXR, GAL4-LXR, GAL4-PPARγ and mouse CAR (mCAR) with respective reporter plasmids (Tk-MRP2-luciferase, Tk-MH100-luciferase, CYP2B10-luciferase) and Renilla. For TLR4 promoter luciferase transcription assay, TLR4 promoter reporter construct (a gift from Dr. Michael Rehli of University of Regensburg, Germany) was transfected along with human PXR, mouse PU.1 expression plasmids and Renilla. […] The cells were harvested in passive lysis buffer (Promega) and luciferase activity was detected using the dualluciferase reporter assay system from Promega in 20 μl of cell lysate using the Turner Biosystems 20/20 n Luminometer. Assays were performed at least two independent times each in triplicates.

[1] = target: T2, hPXR ligand binding domain (LBD) (Homo sapiens, UniProt O75469); assay: LanthaScreen TR-FRET PXR competitive binding assay, hPXR LBD; conditions: read-out: EC50 for ligand displacement in hPXR
T2 construct: purchased Invitrogen
T2 sequence (O75469 146-433 limits assumed): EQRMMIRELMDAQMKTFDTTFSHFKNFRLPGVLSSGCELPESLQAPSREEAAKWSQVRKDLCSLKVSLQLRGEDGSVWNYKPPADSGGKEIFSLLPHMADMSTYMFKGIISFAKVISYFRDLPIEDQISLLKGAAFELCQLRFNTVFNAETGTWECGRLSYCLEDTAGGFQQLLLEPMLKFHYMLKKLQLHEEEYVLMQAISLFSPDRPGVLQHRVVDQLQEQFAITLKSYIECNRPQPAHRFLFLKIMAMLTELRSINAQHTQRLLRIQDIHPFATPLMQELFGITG
Description: A LanthaScreen TR-FRET PXR Competitive Binding Assay was conducted according to the manufacturer's protocol (Invitrogen) as previously published (14). Briefly, serial dilutions of indole 3-propionic acid (diluted in TR-FRET PXR Assay Buffer, Invitrogen) were dispensed into triplicate wells of a black, non-treated 384 well plate (Corning Life Sciences). Subsequently, 5 μl of Fluormone PXR Green was added into each well. Finally, 5 μl of a master mix containing hPXR ligand binding domain (LBD), terbium labeled anti-glutathione S transferase (final concentration 10 nM) and dithiothreitol (final concentration 0.05 mM) was added into each well. For mPXR ligand binding domain, GST tagged mPXR LBD was purified using Glutathione Sepharose 4 Fast Flow beads (GE Health Care) in Poly-Prep Chromatography columns (Bio-Rad). hPXR LBD of the assay kit was replaced with the similar concentrations of mPXR LBD. The content was mixed briefly (10 s) and incubated in dark at room temperature for 1 h. TR-FRET was measured using SpectraMaxR M5 microplate reader (Molecular Devices) with the excitation wavelength of 340 nm and emission wavelengths of 520 and 495 nm. TR-FRET ratio was calculated by dividing the emission signal at 520 nm by emission signal at 495 nm. Data are expressed as percentage TR-FRET ratio. Error bars represent s.e.m of duplicate wells from two separate experiments.

[2] = test system: gut permeability to FITC-dextran; assay: In vivo FITC-dextran gut permeability assay in germ free mice after oral IPA; conditions: germ free (SWGF) mice; oral IPA 20 mg/kg, four consecutive days
Description: Age and sex-matched mice were orally administered with 0.6 mg/g body weight of an 80 mg/ml solution of FITC-dextran (FD4, Sigma). 5 h later, retro-orbital blood was collected from each mouse. Serum was prepared by allowing the blood to clot by leaving it undisturbed overnight at 4° C. and then subsequently centrifuged at 3000 rpm for 20 minutes. Dilutions of FITC-dextran in PBS were used as a standard curve. Absorption of 50 μl serum was measured at microplate reader with excitation and emission filters set at 490 and 530 nm, respectively (38).

[3] = target: T3, aryl hydrocarbon receptor (AhR) (Homo sapiens, UniProt P35869); assay: AhR activation
T3 sequence (P35869 11-848): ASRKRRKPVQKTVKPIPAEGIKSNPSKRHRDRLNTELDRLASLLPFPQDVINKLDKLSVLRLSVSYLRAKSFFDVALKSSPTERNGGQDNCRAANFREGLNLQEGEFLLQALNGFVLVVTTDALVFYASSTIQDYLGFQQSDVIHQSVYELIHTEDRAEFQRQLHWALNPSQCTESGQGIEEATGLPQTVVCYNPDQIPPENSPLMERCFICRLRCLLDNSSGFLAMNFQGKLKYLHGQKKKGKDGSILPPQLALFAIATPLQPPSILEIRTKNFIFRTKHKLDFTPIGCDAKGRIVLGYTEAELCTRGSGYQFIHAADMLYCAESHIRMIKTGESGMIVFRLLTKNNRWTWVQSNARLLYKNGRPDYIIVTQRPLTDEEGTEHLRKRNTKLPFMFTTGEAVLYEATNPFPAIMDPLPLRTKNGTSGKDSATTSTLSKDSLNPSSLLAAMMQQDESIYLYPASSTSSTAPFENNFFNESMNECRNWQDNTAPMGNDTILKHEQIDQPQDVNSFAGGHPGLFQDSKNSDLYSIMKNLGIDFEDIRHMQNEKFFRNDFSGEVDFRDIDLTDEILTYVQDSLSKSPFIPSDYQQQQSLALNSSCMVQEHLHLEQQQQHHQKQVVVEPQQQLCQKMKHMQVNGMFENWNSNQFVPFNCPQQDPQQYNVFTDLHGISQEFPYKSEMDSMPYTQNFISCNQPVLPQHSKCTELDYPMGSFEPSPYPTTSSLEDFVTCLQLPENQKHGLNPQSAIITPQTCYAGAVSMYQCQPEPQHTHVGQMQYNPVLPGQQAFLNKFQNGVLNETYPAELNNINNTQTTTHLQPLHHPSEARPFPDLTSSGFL

Structure (SMILES): O=C(O)CCc1c[nH]c2ccccc12 [IPA, indole-3-propionic acid]
- EC50 (human PXR (hPXR)): 120 µM
- Emax, hPXR transcription assay (human PXR (hPXR); IPA alone, MRP2 luciferase, 293T cells): 6.38 fold over control
- hPXR activation in combination with indole (human PXR (hPXR); fixed concentration of indole (1 mM), increasing concentrations of metabolite): significantly activates hPXR
- EC50 [1]: 2.1 µM
- Gut permeability to FITC-dextran [2]: decreased gut permeability to FITC-dextran
- Activation of AhR [3]: no activation
